Measured values taken from patent US20110045101A1, “FUNGICIDAL SUBSTITUTED AZOLES” (E.I. Du Pont De Nemours and Company, priority 2009, published 2011).

Assays:
Format in all cases: in vivo
Conditions in all cases: 200 ppm; 100 = 100% disease control, 0 = no control relative to controls
[1] = system: Botrytis cinerea; assay: Test C: tomato Botrytis on tomato seedlings, sprayed the day before inoculation, visual disease rating
Outline: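 Tomato seedlings were sprayed until run-off with test suspensions in acetone/water (50/50) carrying 250 ppm polyhydric alcohol ester surfactant. Standard dose was 200 ppm, with 40 ppm for marked entries.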

[2] = system: Alternaria solani; assay: Test D: tomato early blight, sprayed the day before inoculation, visual disease rating
Outline: (§1)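 200 ppm run-off spray (500 g/ha equivalent); * = 40 ppm. Vehicle: acetone/water 50/50, 250 ppm Trem® 014.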

[3] = system: Septoria nodorum; assay: Test F: wheat glume blotch on wheat seedlings, sprayed the day before inoculation, visual disease rating
Outline: as §1

[4] = system: Septoria tritici; assay: Test G: wheat leaf blotch on wheat seedlings, sprayed the day before inoculation, visual disease rating
Outline: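 Seedlings receive a protective spray of test suspension in acetone/water carrying 250 ppm surfactant, mostly at 200 ppm and at 40 ppm where marked. They are inoculated the next day, kept saturated at 24° C for 48 h, then held at 20° C for 19 days before visual scoring.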

[5] = system: Puccinia recondita f. sp. tritici; assay: Test H: wheat leaf rust, test suspension sprayed after inoculation of wheat seedlings, visual disease rating
Outline: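 Wheat seedlings inoculated with P. recondita spores, held 24 h saturated at 20 °C, then 2 days in growth chamber at 20 °C; compound suspension (acetone/water with Trem 014) sprayed to run-off afterwards. Rated visually; 200 ppm (≈500 g/ha) unless marked *, which denotes 40 ppm.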

[6] = system: Puccinia recondita f. sp. tritici; assay: Test I: wheat leaf rust on wheat seedlings, sprayed the day before inoculation, visual disease rating
Outline: as §1

[7] = system: Erysiphe graminis f. sp. tritici; assay: Test J: wheat powdery mildew on wheat seedlings, sprayed the day before inoculation, visual disease rating
Outline: as §1

Compound	Test C disease control rating [1]	Test D disease control rating [2]	Test F disease control rating [3]	Test G disease control rating [4]	Test H disease control rating [5]	Test I disease control rating [6]	Test J disease control rating [7]
Fc1cc(-n2c(Cl)nc(CCl)c2-c2ccc(Br)cn2)ccc1Cl [compound 357]	63%	0%	100%	50%	0%	55%	0%
Cc1nc(Cl)n(-c2ccc(Cl)c(F)c2)c1-c1ccc(Br)cn1 [compound 358]	99%	0%	0%	90%	0%	41%	0%
Fc1cc(-n2c(Cl)nc(CCl)c2-c2cccnc2Cl)ccc1Cl [compound 359]	98%	0%	0%	35%	0%	80%	0%
Cc1nc(Cl)n(-c2ccc(Cl)c(F)c2)c1-c1cccnc1Cl [compound 360]	100%	99%	0%	95%	9%	99%	98%
Clc1ccc(-c2c(Cl)nc(Cl)n2Cc2cccc(Cl)c2)cc1 [compound 361]	99%	0%	0%	93%	9%	74%	80%
Fc1cccc(-n2cnc(Cl)c2-c2c(F)cc(F)cc2F)c1 [compound 362]	100%	99%	0%	86%	0%	83%	49%
CN(C)c1ncn(-c2cccc(F)c2)c1-c1c(F)cc(F)cc1F [compound 363]	99%	0%	0%	53%	9%	0%	0%
Fc1cccc(-n2cnc(Cl)c2-c2c(F)ccc(F)c2F)c1 [compound 364]	100%	100%	0%	58%	0%	98%	83%
Fc1cccc(-n2c(Cl)nc(Cl)c2-c2c(F)cc(F)cc2F)c1 [compound 365]	100%	100%	40%	91%	54%	99%	96%
Fc1cccc(-n2c(Cl)nc(Cl)c2-c2c(F)ccc(F)c2F)c1 [compound 366]	100%	100%	64%	91%	41%	99%	97%
Fc1cccc(-n2c(Br)nc(Cl)c2-c2c(F)cc(F)cc2F)c1 [compound 367]	99%	100%	89%	90%	9%	98%	97%
